Counter-ions that a name gives are not always drawn.

Assay type in all cases: physicochemical
The nature of series [1]: Thermal stability of the crystalline form on heating.
The nature of series [2]: Hygroscopicity of the solid form.
Series [3] is described as follows: Stability of the crystalline form versus relative humidity.

In the case of `C=C1CCC2C3C(CC[C@]12C)[C@@]1(C)CC[C@H](N)CC1[C@@H](O)[C@@H]3O.Cl` (stereo partly drawn) [form C, 3-beta-amino-17-methylene-androstane-6-alpha,7-beta-diol hydrochloride], the “temperature above which the form turns into anhydride D by heating” value in series [1] (conversion of mono-hydrate to anhydrous form D) was “above 60 °C”.
For the molecule `C=C1CCC2C3C(CC[C@]12C)[C@@]1(C)CC[C@H](N)CC1[C@@H](O)[C@@H]3O.Cl` (stereo partly drawn) [form A, 3-beta-amino-17-methylene-androstane-6-alpha,7-beta-diol hydrochloride], the hygroscopicity entry in series [2] is “absence of hygroscopicity”. The “form conversion under high relative humidity” value in series [3] (left for 3 days under a relative humidity above 95%) is “converts to form B”. In series [1], the “temperature above which the form decomposes completely” value is “above 280 °C” and the “temperature at which the form begins to deteriorate chemically” value is “around 240 °C”.
On to `C=C1CCC2C3C(CC[C@]12C)[C@@]1(C)CC[C@H](N)CC1[C@@H](O)[C@@H]3O.Cl` (stereo partly drawn) [form B, 3-beta-amino-17-methylene-androstane-6-alpha,7-beta-diol hydrochloride], for which, in series [3] (crystalline powder, hydrochloride), the “relative humidity range in which the crystalline form is stable” value is given as “above 50 % RH”.
For `C=C1CC[C@H]2[C@@H]3[C@@H](O)[C@H](O)C4C[C@@H](N)CC[C@]4(C)[C@H]3CC[C@]12C` (stereo partly drawn) [acetate salt, 3-beta-amino-17-methylene-androstane-6-alpha,7-beta-diol, reference compound], the hygroscopicity entry in series [2] is given as “hygroscopic”.

These data come from patent US20080051382A1, “Crystalline Forms of 3-Beta-Amino 17-Methylene Androstane-6-Alpha 7-Beta-Diol Hydrochloride” (INFLAZYME PHARMACEUTICALS LTD., priority 2003, published 2008).
